One series has as its target T1, HCMV polymerase (Human cytomegalovirus, UniProt P08546).
T1 construct: made in house; host or cells: recombinant baculovirus-infected SF-9 cells
The series can be described thus: HCMV polymerase assay (scintillation proximity assay, modified version). Type of series: biochemical. The settings on record: modified SPA assay; compounds diluted in 100% DMSO; 4.5 mM DTT. On the procedure: The HCMV polymerase assay is performed using a scintillation proximity assay (SPA) as described in several references, such as N. D. Cook, et al., Pharmaceutical Manufacturing International, pages 49-53 (1992); K. Takeuchi, Laboratory Practice, September issue (1992); U.S. Pat. No. 4,568,649 (1986); which are incorporated by reference herein. Reactions are performed in 96-well plates. The assay is conducted in 100 μl volume with 5.4 mM HEPES (pH 7.5), 11.7 mM KCl, 4.5 mM MgCl2, 0.36 mg/ml BSA, and 90 nM ^3H-dTTP. Assays are run with and without CHAPS, (3-[(3-cholamidopropyl)-dimethylammonio]-1-propane-sulfonate) at a final concentration of 2 mM. HCMV polymerase is diluted in enzyme dilution buffer containing 50% glycerol, 250 mM NaCl, 10 mM HEPES (pH 7.5), 100 μg/ml BSA, and 0.01% sodium azide. The HCMV polymerase, which is expressed in recombinant baculovirus-infected SF-9 cells and purified according to literature procedures, is added at 10% (or 10 μl) of the final reaction volume, i.e., 100 μl. Compounds are diluted in 50% DMSO and 10 μl are added to each well. Control wells contain an equivalent concentration of DMSO. Unless noted otherwise, reactions are initiated via the addition of 6 nM biotinylated poly(dA)-oligo(dT) template/primer to reaction mixtures containing the enzyme, substrate, and compounds of interest. Plates are incubated in a 25° C. or 37° C. H2O bath and terminated via the addition of 40 μl/reaction of 0.5 M EDTA (pH 8) per well. Reactions are terminated within the time-frame during which substrate incorporation is linear and varied depending upon the enzyme and conditions used, i.e., 30 min. for HCMV polymerase. Ten μl of streptavidin-SPA beads (20 mg/ml in PBS/10% glycerol) are added following termination of the reaction. Plates are incubated 10 min. at 37° C., then equilibrated to room temperature, and counted on a Packard Topcount. Linear regressions are performed and IC50's are calculated using computer software.
A modified version of the above HCMV polymerase assay is performed as described above, but with the following changes: Compounds are diluted in 100% DMSO until final dilution into assay buffer. In the previous assay, compounds are diluted in 50% DMSO. 4.5 mM dithiotherotol (DTT) is added to the polymerase buffer. […] All results are listed as Polymerase IC50 (μM) values. In Table 1, the term “nd” refers to activity data not determined.
On the technique in general: SPA uses beads or plates that emit light when radiolabelled molecules are held near them.

A further series deals with HSV polymerase (Human herpesvirus 1, UniProt P04293). Nature of the series: HSV polymerase assay (Table 1). Type of series: biochemical.
The next series has as its target VZV polymerase (Varicella-zoster virus, UniProt P09252). Nature of the series: VZV polymerase assay (Table 1). In kind it is biochemical.

T1 sequence (P08546 whole entry): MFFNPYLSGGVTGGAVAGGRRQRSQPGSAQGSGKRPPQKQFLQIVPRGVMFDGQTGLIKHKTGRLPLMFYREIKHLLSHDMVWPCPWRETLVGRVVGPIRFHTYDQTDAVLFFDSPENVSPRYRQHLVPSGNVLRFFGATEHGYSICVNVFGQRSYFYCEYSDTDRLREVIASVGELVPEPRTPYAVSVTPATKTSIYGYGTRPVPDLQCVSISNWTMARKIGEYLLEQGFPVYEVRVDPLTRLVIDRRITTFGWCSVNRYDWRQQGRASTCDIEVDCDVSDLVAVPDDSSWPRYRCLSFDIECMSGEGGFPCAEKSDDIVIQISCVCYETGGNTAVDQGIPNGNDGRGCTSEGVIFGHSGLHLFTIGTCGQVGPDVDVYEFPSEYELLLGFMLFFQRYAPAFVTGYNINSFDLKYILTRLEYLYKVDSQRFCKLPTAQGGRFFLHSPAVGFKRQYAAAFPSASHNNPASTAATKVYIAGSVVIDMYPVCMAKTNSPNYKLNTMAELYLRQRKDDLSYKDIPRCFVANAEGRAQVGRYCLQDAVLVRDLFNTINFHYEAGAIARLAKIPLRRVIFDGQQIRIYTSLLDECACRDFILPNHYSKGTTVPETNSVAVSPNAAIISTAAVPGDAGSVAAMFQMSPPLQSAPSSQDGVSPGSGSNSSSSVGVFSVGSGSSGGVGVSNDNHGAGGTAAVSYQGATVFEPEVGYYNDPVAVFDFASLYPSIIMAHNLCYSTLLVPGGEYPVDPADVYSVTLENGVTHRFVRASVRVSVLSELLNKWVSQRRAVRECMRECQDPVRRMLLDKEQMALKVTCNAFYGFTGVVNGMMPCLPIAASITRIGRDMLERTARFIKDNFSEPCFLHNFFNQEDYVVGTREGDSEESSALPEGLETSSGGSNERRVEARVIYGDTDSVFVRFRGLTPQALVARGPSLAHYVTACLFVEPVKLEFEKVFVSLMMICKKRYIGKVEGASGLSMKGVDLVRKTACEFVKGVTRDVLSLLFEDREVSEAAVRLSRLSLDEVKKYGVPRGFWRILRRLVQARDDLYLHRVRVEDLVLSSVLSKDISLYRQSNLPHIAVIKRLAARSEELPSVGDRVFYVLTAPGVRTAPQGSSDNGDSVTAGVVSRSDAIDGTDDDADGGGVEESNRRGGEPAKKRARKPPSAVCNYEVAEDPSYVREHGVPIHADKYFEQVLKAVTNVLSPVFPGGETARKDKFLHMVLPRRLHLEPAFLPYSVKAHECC
Sequence of VZV polymerase (P09252 whole entry): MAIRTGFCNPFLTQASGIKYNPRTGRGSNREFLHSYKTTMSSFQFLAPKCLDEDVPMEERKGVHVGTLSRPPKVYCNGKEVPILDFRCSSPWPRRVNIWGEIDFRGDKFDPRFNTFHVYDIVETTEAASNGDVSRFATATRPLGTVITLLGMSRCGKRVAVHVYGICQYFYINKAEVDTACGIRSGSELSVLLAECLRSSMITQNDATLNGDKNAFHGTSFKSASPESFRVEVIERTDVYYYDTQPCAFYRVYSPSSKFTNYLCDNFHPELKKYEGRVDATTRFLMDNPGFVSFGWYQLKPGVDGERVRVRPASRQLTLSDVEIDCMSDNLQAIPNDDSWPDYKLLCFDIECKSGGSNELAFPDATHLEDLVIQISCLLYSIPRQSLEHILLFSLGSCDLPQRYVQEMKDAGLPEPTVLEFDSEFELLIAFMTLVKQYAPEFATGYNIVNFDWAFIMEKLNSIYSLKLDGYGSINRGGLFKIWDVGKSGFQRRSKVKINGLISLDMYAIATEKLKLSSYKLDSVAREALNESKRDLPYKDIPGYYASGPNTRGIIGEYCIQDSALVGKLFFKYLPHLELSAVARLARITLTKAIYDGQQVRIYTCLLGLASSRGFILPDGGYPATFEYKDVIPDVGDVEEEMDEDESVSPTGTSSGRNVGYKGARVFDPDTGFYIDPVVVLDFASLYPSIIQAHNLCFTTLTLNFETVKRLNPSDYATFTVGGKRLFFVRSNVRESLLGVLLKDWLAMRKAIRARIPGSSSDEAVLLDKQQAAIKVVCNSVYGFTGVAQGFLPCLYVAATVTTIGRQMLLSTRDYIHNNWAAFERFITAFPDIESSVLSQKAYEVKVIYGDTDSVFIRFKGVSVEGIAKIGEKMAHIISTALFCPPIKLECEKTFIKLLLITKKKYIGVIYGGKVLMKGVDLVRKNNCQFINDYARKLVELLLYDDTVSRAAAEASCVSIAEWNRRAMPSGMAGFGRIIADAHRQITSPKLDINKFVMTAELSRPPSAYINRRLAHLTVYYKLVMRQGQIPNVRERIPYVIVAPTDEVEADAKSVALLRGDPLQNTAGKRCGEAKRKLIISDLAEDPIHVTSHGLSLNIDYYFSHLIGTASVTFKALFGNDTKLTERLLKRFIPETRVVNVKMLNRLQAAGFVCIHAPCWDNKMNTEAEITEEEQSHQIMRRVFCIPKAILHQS
Sequence of HSV polymerase (P04293 whole entry): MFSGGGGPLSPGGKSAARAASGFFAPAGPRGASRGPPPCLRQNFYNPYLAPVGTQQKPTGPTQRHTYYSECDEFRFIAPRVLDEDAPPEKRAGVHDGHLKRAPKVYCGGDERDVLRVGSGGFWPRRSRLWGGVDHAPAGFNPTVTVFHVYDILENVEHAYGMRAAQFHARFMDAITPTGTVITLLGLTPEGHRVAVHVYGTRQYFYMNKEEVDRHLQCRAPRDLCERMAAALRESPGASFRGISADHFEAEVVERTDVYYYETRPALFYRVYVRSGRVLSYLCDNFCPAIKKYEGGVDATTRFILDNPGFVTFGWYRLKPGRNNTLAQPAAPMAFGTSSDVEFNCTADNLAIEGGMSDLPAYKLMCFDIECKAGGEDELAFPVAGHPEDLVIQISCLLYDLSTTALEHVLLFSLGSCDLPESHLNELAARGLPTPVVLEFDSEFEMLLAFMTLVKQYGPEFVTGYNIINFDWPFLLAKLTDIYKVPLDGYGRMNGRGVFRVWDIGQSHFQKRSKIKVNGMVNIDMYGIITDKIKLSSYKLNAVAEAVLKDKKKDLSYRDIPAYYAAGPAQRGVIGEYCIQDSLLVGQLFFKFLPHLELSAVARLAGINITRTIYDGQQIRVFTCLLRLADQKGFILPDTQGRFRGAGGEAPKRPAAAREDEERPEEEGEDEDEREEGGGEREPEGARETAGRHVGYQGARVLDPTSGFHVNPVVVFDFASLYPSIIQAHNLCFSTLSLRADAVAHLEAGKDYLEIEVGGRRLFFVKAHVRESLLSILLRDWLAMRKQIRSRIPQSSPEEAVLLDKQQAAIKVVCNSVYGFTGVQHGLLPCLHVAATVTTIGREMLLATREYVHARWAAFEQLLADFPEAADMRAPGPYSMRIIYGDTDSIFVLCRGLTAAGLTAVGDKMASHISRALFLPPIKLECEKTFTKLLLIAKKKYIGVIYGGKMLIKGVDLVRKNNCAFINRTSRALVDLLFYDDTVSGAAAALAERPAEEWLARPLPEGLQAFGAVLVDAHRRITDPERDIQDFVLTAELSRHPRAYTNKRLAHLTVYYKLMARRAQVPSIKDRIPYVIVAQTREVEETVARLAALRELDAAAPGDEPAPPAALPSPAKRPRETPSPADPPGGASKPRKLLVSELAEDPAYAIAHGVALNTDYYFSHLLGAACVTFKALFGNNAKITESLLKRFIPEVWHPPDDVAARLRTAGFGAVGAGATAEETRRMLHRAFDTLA

In general, IC50 refers to the midpoint of a concentration-inhibition curve. Read a low IC50 as higher potency. What is called melting point is the temperature, or range, at which the solid turns liquid. In turn, `Cn1nc(C(=O)NCc2ccc(Cl)cc2)c(=O)c2cc(I)ccc21` [Example 1, N-(4-chlorobenzyl)-6-iodo-1-methyl-4-oxo-1,4-dihydro-3-cinnolinecarboxamide] displayed a melting point of 194 to 195 °C. The same compound displayed an IC50 against HCMV polymerase of 5.5 µM.

`Cn1nc(C(=O)NCc2ccc(Cl)cc2)c(=O)c2cc(C#CCO)ccc21` [Example 2, N-(4-chlorobenzyl)-6-(3-hydroxy-1-propynyl)-1-methyl-4-oxo-1,4-dihydro-3-cinnolinecarboxamide] gave a melting point of 229 to 231 °C. This compound also came in with an IC50 on HCMV polymerase of 2.7 µM. The half-inhibitory concentration (IC50) against HSV polymerase was 1.7 µM. Half-maximal inhibition against VZV polymerase (IC50) was put at 1.1 µM.

`Cn1nc(C(=O)NCc2ccc(Cl)cc2)c(=O)c2cc(C#CCCO)ccc21` [Example 3, N-(4-chlorobenzyl)-6-(4-hydroxy-1-butynyl)-1-methyl-4-oxo-1,4-dihydro-3-cinnolinecarboxamide] gave a melting point of 227 to 229 °C. Also, the IC50 against HCMV polymerase was 9.8 µM.

Take `Cn1nc(C(=O)NCc2ccc(Cl)cc2)c(=O)c2cc(CN3CCOCC3)ccc21` [Example 5, N-(4-chlorobenzyl)-1-methyl-6-(4-morpholinylmethyl)-4-oxo-1,4-dihydro-3-cinnolinecarboxamide]: the melting point was 190 to 192 °C. This compound yielded a half-inhibitory concentration (IC50) against HCMV polymerase of 1.2 µM.

As for `Cn1nc(C(=O)NCc2ccc(Cl)cc2)c(=O)c2cc(CO)ccc21` [Example 4, N-(4-chlorobenzyl)-6-(hydroxymethyl)-1-methyl-4-oxo-1,4-dihydro-3-cinnolinecarboxamide], the melting point lay in the range of 203 to 205 °C. On HCMV polymerase, this compound displayed a half-maximal inhibitory concentration (IC50) of 16.7 µM.

The values are drawn from patent publication US6624160B2, “4-oxo-1,4-dihydro-3-cinnolinecarboxamides as antiviral agents” (Pharmacia & Upjohn Co., priority 2000, dated 2003).
